The source made the active and inactive calls. No rule for the calls is given here.
Tested on: CCRIS mutagenicity, Ames/micronucleus/aberration tests
Test: CCRIS mutagenicity studies
[1] = Test System: AMES SALMONELLA TYPHIMURIUM, Strain/Indicator: TA98, Metabolic Activation: NONE, Method: STANDARD PLATE
[2] = Test System: AMES SALMONELLA TYPHIMURIUM, Strain/Indicator: TA100, Metabolic Activation: NONE, Method: STANDARD PLATE
[3] = Test System: AMES SALMONELLA TYPHIMURIUM, Strain/Indicator: TA98, Metabolic Activation: NONE, Method: PREINCUBATION
[4] = Test System: AMES SALMONELLA TYPHIMURIUM, Strain/Indicator: TA100, Metabolic Activation: NONE, Method: PREINCUBATION
[5] = Test System: E. COLI, Strain/Indicator: WP2 UVRA, Metabolic Activation: NONE, Method: PREINCUBATION
[6] = Test System: AMES SALMONELLA TYPHIMURIUM, Strain/Indicator: TA102, Metabolic Activation: NONE, Method: PREINCUBATION

For OC[C@H]1O[C@@H](n2cnc3c(=S)nc[nH]c32)[C@H](O)[C@@H]1O, the mutagenic call [1] was “inactive; negative”, the mutagenic call [2] was “active; positive” and the mutagenic call (Test System: AMES SALMONELLA TYPHIMURIUM, Strain/Indicator: TA102, Metabolic Activation: NONE, Method: STANDARD PLATE) was “inactive; negative”. The mutagenic call (Test System: AMES SALMONELLA TYPHIMURIUM, Strain/Indicator: TA1537, Metabolic Activation: NONE, Method: STANDARD PLATE) was “inactive; negative” and the mutagenic call (Test System: E. COLI, Strain/Indicator: WP2 (HCR), Metabolic Activation: NONE, Method: STANDARD PLATE) was “inactive; negative”.
For CC(C)c1c(N)ccc2ccccc12, the mutagenic call [1] was “inactive; negative”, the mutagenic call (Test System: AMES SALMONELLA TYPHIMURIUM, Strain/Indicator: TA98, Metabolic Activation: RAT LIVER S-9, AROCLOR, Method: STANDARD PLATE) was “active; positive” and the mutagenic call [2] was “inactive; negative”. For the same molecule, the mutagenic call (Test System: AMES SALMONELLA TYPHIMURIUM, Strain/Indicator: TA100, Metabolic Activation: RAT LIVER S-9, AROCLOR, Method: STANDARD PLATE) was “active; positive”.
F[B-](F)(F)F was tested, and the mutagenic call [3] was “inactive; negative”, the mutagenic call (Test System: AMES SALMONELLA TYPHIMURIUM, Strain/Indicator: TA98, Metabolic Activation: RAT, LIVER, S-9, KC 500, Method: PREINCUBATION) was “inactive; negative” and the mutagenic call [4] was “inactive; negative”. The mutagenic call (Test System: AMES SALMONELLA TYPHIMURIUM, Strain/Indicator: TA100, Metabolic Activation: RAT, LIVER, S-9, KC 500, Method: PREINCUBATION) was “inactive; negative”, the mutagenic call (Test System: AMES SALMONELLA TYPHIMURIUM, Strain/Indicator: TA1535, Metabolic Activation: NONE, Method: PREINCUBATION) was “inactive; negative” and the mutagenic call (Test System: AMES SALMONELLA TYPHIMURIUM, Strain/Indicator: TA1535, Metabolic Activation: RAT, LIVER, S-9, KC 500, Method: PREINCUBATION) was “inactive; negative”. For the same molecule, the mutagenic call (Test System: AMES SALMONELLA TYPHIMURIUM, Strain/Indicator: TA1537, Metabolic Activation: NONE, Method: PREINCUBATION) was “inactive; negative”, the mutagenic call (Test System: AMES SALMONELLA TYPHIMURIUM, Strain/Indicator: TA1537, Metabolic Activation: RAT, LIVER, S-9, KC 500, Method: PREINCUBATION) was “inactive; negative” and the mutagenic call (Test System: AMES SALMONELLA TYPHIMURIUM, Strain/Indicator: TA1538, Metabolic Activation: NONE, Method: PREINCUBATION) was “inactive; negative”. The mutagenic call (Test System: AMES SALMONELLA TYPHIMURIUM, Strain/Indicator: TA1538, Metabolic Activation: RAT, LIVER, S-9, KC 500, Method: PREINCUBATION) was “inactive; negative”, the mutagenic call [5] was “inactive; negative” and the mutagenic call (Test System: E. COLI, Strain/Indicator: WP2 UVRA, Metabolic Activation: RAT, LIVER, S-9, KC 500, Method: PREINCUBATION) was “inactive; negative”.
With O=[N+]([O-])c1ccc2c3cccc4cccc(c5c([N+](=O)[O-])ccc1c25)c43 the mutagenic call (Test System: AMES SALMONELLA TYPHIMURIUM, Strain/Indicator: TA98(1,8-DNP6), Metabolic Activation: NONE, Method: STANDARD PLATE) was “active; positive”, the mutagenic call (Test System: AMES SALMONELLA TYPHIMURIUM, Strain/Indicator: TA98(NR), Metabolic Activation: NONE, Method: STANDARD PLATE) was “active; positive” and the mutagenic call [1] was “active; positive”. For the same molecule, the mutagenic call (Test System: AMES SALMONELLA TYPHIMURIUM, Strain/Indicator: TA98, Metabolic Activation: NONE, Method: STANDARD PLATE (ANAEROBIC)) was “active; positive”, the mutagenic call (Test System: AMES SALMONELLA TYPHIMURIUM, Strain/Indicator: TA98, Metabolic Activation: RAT, LIVER, S-9, AROCLOR 1254, Method: STANDARD PLATE) was “active; positive” and the mutagenic call [2] was “inactive; negative”. For the same molecule, the mutagenic call (Test System: AMES SALMONELLA TYPHIMURIUM, Strain/Indicator: TA100, Metabolic Activation: RAT, LIVER, S-9, AROCLOR 1254, Method: STANDARD PLATE) was “active; positive”.
With O.O.O=C([O-])[C@H](O)[C@@H](O)[C@H](O)[C@H](O)CO.O=C([O-])[C@H](O)[C@@H](O)[C@H](O)[C@H](O)CO.[Fe+2] the mutagenic call (Test System: AMES SALMONELLA TYPHIMURIUM, Strain/Indicator: TA97, Metabolic Activation: NONE, Method: PREINCUBATION) was “inactive; negative”, the mutagenic call (Test System: AMES SALMONELLA TYPHIMURIUM, Strain/Indicator: TA97, Metabolic Activation: RAT, LIVER, S-9, AROCLOR 1254, Method: PREINCUBATION) was “inactive; negative” and the mutagenic call [6] was “inactive; negative”. For the same molecule, the mutagenic call (Test System: AMES SALMONELLA TYPHIMURIUM, Strain/Indicator: TA102, Metabolic Activation: RAT, LIVER, S-9, AROCLOR 1254, Method: PREINCUBATION) was “inactive; negative”.
In the case of Cc1c(N)nc([C@H](CC(N)=O)NC[C@H](N)C(N)=O)nc1C(=O)N[C@H](C(=O)N[C@H](C)[C@@H](O)[C@H](C)C(=O)N[C@H](C(=O)NCCc1nc(-c2nc(C(=O)NCCCN(C)CCCN=C(N)CC3CCC(Cl)CC3)cs2)cs1)[C@@H](C)O)[C@@H](O[C@@H]1O[C@@H](CO)[C@@H](O)[C@H](O)[C@@H]1O[C@H]1O[C@H](CO)[C@@H](O)[C@H](OC(N)=O)[C@@H]1O)c1cnc[nH]1 (stereo not given in full), the mutagenic call (Test System: AMES SALMONELLA TYPHIMURIUM, Strain/Indicator: TA94, Metabolic Activation: NONE, Method: PREINCUBATION) was “active; positive” and the mutagenic call [6] was “active; positive”.
ClCc1ccc2c(c1)-c1cccc3cccc-2c13 was tested, and the mutagenic call [1] was “active; positive” and the mutagenic call [2] was “active; positive”.
With O=c1[nH]cc(CO)c(=O)[nH]1 the mutagenic call (Test System: CHINESE HAMSTER V-79, Strain/Indicator: V-79 (HPRT)/6-THIOGUANINE, Metabolic Activation: NONE, Method: STANDARD PLATE) was “inactive; negative”.
In the case of COc1c2ccoc2nc2c(OC)cccc12, the mutagenic call (Test System: AMES SALMONELLA TYPHIMURIUM, Strain/Indicator: TA98, Metabolic Activation: RAT, LIVER, MICROSOMES, PHENOBARBITAL, Method: STANDARD PLATE) was “active; positive”, the mutagenic call (Test System: AMES SALMONELLA TYPHIMURIUM, Strain/Indicator: TA98, Metabolic Activation: RAT, LIVER, S-9, PHENOBARBITAL, Method: STANDARD PLATE) was “active; positive” and the mutagenic call (Test System: AMES SALMONELLA TYPHIMURIUM, Strain/Indicator: TA100, Metabolic Activation: RAT, LIVER, MICROSOMES, PHENOBARBITAL, Method: STANDARD PLATE) was “active; positive”. The mutagenic call (Test System: AMES SALMONELLA TYPHIMURIUM, Strain/Indicator: TA100, Metabolic Activation: RAT, LIVER, S-9, PHENOBARBITAL, Method: STANDARD PLATE) was “active; positive”, the mutagenic call (Test System: AMES SALMONELLA TYPHIMURIUM, Strain/Indicator: TA1535, Metabolic Activation: RAT, LIVER, MICROSOMES, PHENOBARBITAL, Method: STANDARD PLATE) was “inactive; negative” and the mutagenic call (Test System: AMES SALMONELLA TYPHIMURIUM, Strain/Indicator: TA1538, Metabolic Activation: RAT, LIVER, MICROSOMES, PHENOBARBITAL, Method: STANDARD PLATE) was “active; positive”.
CC(=O)Oc1ccc2c(CBr)cc(=O)oc2c1 was tested, and the mutagenic call [3] was “inactive; negative”, the mutagenic call (Test System: AMES SALMONELLA TYPHIMURIUM, Strain/Indicator: TA98, Metabolic Activation: RAT, LIVER, S-9, PCB, Method: PREINCUBATION) was “inactive; negative” and the mutagenic call [4] was “inactive; negative”. The mutagenic call (Test System: AMES SALMONELLA TYPHIMURIUM, Strain/Indicator: TA100, Metabolic Activation: RAT, LIVER, S-9, PCB, Method: PREINCUBATION) was “inactive; negative” and the mutagenic call [5] was “inactive; negative”.
For CC(=O)ON(OCc1ccc(Br)cc1)C(=O)c1ccccc1, the mutagenic call [2] was “active; positive” and the mutagenic call (Test System: AMES SALMONELLA TYPHIMURIUM, Strain/Indicator: TA100, Metabolic Activation: RAT, S-9, AROCLOR, Method: STANDARD PLATE) was “active; positive”.

Reference: PubChem BioAssay AID1259407 (Chemical Carcinogenesis Research Information System (CCRIS), 2018)
